The values that follow come from patent publication US10202350B2, “MCT4 inhibitors for treating disease” (Vettore, LLC, priority 2015, dated 2019).

One assay concerns the target MCT1 (Homo sapiens (Human), UniProt P53985). Kind of assay: MCT1-mediated lactate transport in BT20 breast cancer cells. In kind it is cell-based. Particulars: native MCT1, 10 mM L-lactate, Table 3. The procedure:
(§1) 10 μL of a 30 mM DMSO stock of BCECF-AM ester (Life Technologies) is added and the cells are incubated at 37° C. for 5 min. The cells are pelleted (300 g, 5 min), washed once with 1 mL Tyrode's Solution, pH 7.4, re-pelleted (300 g, 5 min), and resuspended in 1 mL Tyrode's Solution, pH 7.4.
(§2) 2.5 μL BCECF-loaded cells, along with either 10 μL DMSO or 100×compound in DMSO, are added to 937.5 μL of Tyrode's Solution in a quartz 1.0 mL cuvette (PerkinElmer, B0631116). […] After establishing baseline BCECF fluorescence (around 10-20 s), 50 μL of 1 M sodium L-lactate (Sigma-Aldrich) is added to the cuvette (final concentration: 50 mM) and rapidly mixed. The time-dependent decrease in BCECF fluorescence (490/440 ratio) may be fit to an exponential decay curve (Prism GraphPad) to determine the rate of lactate transport.
Assay 4: MCT1-Mediated Lactate Transport in BT20 Breast Cancer Cells.
Preparation of BCECF loaded cells are as described for Assay 1. Lactate transport assay is as described for Assay 1, except 10 mM L-lactate (rather than 50 mM) is added.

Another assay concerns the target MCT4 (Homo sapiens (Human), UniProt O15427). Kind of assay: MCT4-mediated lactate transport in MDA-MB-231 breast cancer cells. In kind it is cell-based. Particulars: MDA-MB-231 cells, native MCT4; 50 mM L-lactate. The procedure:
as §1, §2
Preparation of BCECF-loaded cells and lactate transport activity may be determined as described for Assay 1.

Chain of MCT1 (P53985 whole entry): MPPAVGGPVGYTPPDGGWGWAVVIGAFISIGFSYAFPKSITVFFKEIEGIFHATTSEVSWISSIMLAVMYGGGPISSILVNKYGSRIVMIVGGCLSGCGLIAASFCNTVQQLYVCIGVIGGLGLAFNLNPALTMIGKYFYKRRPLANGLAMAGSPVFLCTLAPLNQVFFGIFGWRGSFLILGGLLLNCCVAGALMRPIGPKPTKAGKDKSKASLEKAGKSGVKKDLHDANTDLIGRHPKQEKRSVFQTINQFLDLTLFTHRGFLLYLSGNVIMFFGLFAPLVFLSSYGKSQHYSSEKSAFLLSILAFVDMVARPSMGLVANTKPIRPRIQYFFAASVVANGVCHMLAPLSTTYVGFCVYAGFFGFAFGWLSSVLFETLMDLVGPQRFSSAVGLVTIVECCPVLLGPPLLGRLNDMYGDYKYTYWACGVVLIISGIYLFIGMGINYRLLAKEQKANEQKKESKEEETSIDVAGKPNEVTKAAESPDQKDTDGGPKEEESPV
Chain of MCT1 (P35613 140-385 partner): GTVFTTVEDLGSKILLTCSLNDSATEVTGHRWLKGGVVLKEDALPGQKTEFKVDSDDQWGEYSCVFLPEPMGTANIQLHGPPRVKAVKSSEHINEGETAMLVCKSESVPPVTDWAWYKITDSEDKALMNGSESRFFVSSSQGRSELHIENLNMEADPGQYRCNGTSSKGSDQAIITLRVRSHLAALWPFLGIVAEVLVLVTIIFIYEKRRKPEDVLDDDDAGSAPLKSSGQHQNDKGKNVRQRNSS
Chain of MCT4 (O15427 whole entry, looked up): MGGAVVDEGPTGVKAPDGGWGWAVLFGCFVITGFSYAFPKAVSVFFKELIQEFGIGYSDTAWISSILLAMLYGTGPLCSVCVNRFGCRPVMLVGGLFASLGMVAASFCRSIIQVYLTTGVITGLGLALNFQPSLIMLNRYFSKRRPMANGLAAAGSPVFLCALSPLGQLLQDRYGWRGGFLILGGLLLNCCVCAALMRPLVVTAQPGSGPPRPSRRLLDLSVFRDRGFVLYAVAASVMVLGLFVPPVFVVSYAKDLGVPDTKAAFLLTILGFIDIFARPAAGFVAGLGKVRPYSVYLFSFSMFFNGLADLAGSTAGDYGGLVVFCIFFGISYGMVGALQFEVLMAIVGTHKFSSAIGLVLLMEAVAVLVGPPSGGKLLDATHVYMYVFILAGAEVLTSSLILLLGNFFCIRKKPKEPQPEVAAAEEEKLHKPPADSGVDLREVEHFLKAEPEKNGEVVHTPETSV
Chain of MCT4 (P35613 whole entry partner, looked up): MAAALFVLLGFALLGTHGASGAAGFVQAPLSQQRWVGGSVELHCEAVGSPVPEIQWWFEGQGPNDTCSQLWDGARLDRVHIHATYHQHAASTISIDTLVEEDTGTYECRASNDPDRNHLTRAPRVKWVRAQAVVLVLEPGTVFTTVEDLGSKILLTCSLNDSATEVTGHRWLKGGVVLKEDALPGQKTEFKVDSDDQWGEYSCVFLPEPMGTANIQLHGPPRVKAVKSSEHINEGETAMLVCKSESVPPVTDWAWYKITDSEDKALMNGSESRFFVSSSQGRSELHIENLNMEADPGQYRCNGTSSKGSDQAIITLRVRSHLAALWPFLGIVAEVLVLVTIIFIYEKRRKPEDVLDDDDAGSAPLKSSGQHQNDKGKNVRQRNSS

Turning to `CC(C)(OCc1cc(-c2ccsc2)n(Cc2ccccc2Cl)n1)C(=O)O` [Example 24, 2-[[1-[(2-Chlorophenyl)methyl]-5-(3-thienyl)pyrazol-3-yl]methoxy]-2-methyl-propanoic acid], the IC50 (usually the concentration that gives 50% inhibition) was > 100000 nM on MCT1 and 30 nM on MCT4. On to `CC(C)(OCc1cc(-c2cccs2)n(Cc2ccccc2Cl)n1)C(=O)O` [Example 25, 2-[[1-[(2-Chlorophenyl)methyl]-5-(2-thienyl)pyrazol-3-yl]methoxy]-2-methyl-propanoic acid], for which the values for the IC50 on MCT1 and at MCT4 were 77000 nM and 33 nM, respectively. Take `CC(C)COc1cccc(-c2cc(COC(C)(C)C(=O)O)nn2Cc2ccccc2F)c1` [Example 26, 2-[[1-[(2-Fluorophenyl)methyl]-5-(3-isobutoxyphenyl)pyrazol-3-yl]methoxy]-2-methyl-propanoic acid]: the results for the half-maximal inhibitory concentration (IC50) at MCT1 and against MCT4 were 27000 nM and 9.4 nM, respectively.

For `CCOc1cccc(-c2cc(COC(C)(C)C(=O)O)nn2Cc2ccccc2Cl)c1` [Example 28, 2-[[1-[(2-Chlorophenyl)methyl]-5-(3-ethoxyphenyl)pyrazol-3-yl]methoxy]-2-methyl-propanoic acid], the IC50 was 15000 nM on MCT1 and 12 nM at MCT4. For `CC(C)Oc1cccc(-c2cc(COC(C)(C)C(=O)O)nn2Cc2ccccc2Br)c1` [Example 29, 2-[[1-[(2-Bromophenyl)methyl]-5-(3-isopropoxyphenyl)pyrazol-3-yl]methoxy]-2-methyl-propanoic acid], in that order: 16000 nM and 3.7 nM. For the compound `COc1cccc(-c2cc(COC(C)(C)C(=O)O)nn2Cc2ccccc2Br)c1` [Example 30, 2-[[1-[(2-Bromophenyl)methyl]-5-(3-methoxyphenyl)-1H-pyrazol-3-yl]methoxy]-2-methylpropanoic acid], the IC50 on MCT1 worked out at 27000 nM; against MCT4, 8.8 nM. In the case of `COc1cccc(-c2cc(COC(C)(C)C(=O)O)nn2Cc2ccccc2C(C)C)c1` [Example 31, 2-[[1-[(2-Isopropylphenyl)methyl]-5-(3-methoxyphenyl)pyrazol-3-yl]methoxy]-2-methyl-propanoic acid], the IC50 against MCT1 amounted to 42000 nM; at MCT4, 53 nM. Regarding `COc1cccc(-c2cc(COC(C)(C)C(=O)O)nn2Cc2ccccc2C)c1` [Example 32, 2-[[5-(3-Methoxyphenyl)-1-(o-tolylmethyl)pyrazol-3-yl]methoxy]-2-methyl-propanoic acid], the results for the IC50 against MCT1 and against MCT4 were 83000 nM and 79 nM, respectively. For `CC(C)(OCc1cc(-c2cccc(OCC3CC3)c2)n(Cc2ccccc2Cl)n1)C(=O)O` [Example 33, 2-[[1-[(2-Chlorophenyl)methyl]-5-[3-(cyclopropylmethoxy)phenyl]pyrazol-3-yl]methoxy]-2-methyl-propanoic acid], in that order: 9100 nM and 3.2 nM. In the case of `CC(C)(OCc1cc(-c2cccc(OC(F)(F)F)c2)n(Cc2ccccc2Cl)n1)C(=O)O` [Example 34, 2-[[1-[(2-Chlorophenyl)methyl]-5-[3-(trifluoromethoxy)phenyl]pyrazol-3-yl]methoxy]-2-methyl-propanoic acid], the IC50 against MCT1 was > 11000 nM; against MCT4, 9.3 nM. In the case of `CC(C)(OCc1cc(-c2cccc(OC3CCC3)c2)n(Cc2ccccc2Cl)n1)C(=O)O` [Example 37, 2-[[1-[(2-Chlorophenyl)methyl]-5-[3-(cyclobutoxy)phenyl]pyrazol-3-yl]methoxy]-2-methyl-propanoic acid], the IC50 amounted to 8400 nM against MCT1 and 7.6 nM against MCT4.

As for `CC(C)(OCc1cc(-c2cccc(CN3CCOCC3)c2)n(Cc2ccccc2Cl)n1)C(=O)O` [Example 40, 2-[[1-[(2-Chlorophenyl)methyl]-5-[3-(morpholinomethyl)phenyl]pyrazol-3-yl]methoxy]-2-methyl-propanoic acid], the IC50 against MCT1 is > 100000 nM; against MCT4 it was 520 nM. For `COc1cccc(-c2cc(COC3(C(=O)O)CCC3)nn2Cc2ccccc2Cl)c1` [Example 41, 1-[[1-[(2-Chlorophenyl)methyl]-5-(3-methoxyphenyl)pyrazol-3-yl]methoxy]cyclobutanecarboxylic acid], in that order: 1200 nM and 55 nM. Consider `CC(C)(OCc1cc(-c2cccc(OCC3CCC3)c2)n(Cc2ccccc2Cl)n1)C(=O)O` [Example 42, 2-[[1-[(2-Chlorophenyl)methyl]-5-[3-(cyclobutylmethoxy)phenyl]pyrazol-3-yl]methoxy]-2-methyl-propanoic acid], for which the IC50 against MCT4 stood at 2.6 nM. In the case of `CC(C)(OCc1cc(-c2cccc(OCC(F)(F)F)c2)n(Cc2ccccc2Cl)n1)C(=O)O` [Example 43, 2-[[1-[(2-Chlorophenyl)methyl]-5-[3-(2,2,2-trifluoroethoxy)phenyl]pyrazol-3-yl]methoxy]-2-methyl-propanoic acid], the figures for the IC50 at MCT1 and on MCT4 were > 33000 nM and 13 nM, respectively. `CC(C)(OCc1cc(-c2cccc(OCC3CCCC3)c2)n(Cc2ccccc2Cl)n1)C(=O)O` [Example 44, 2-[[1-[(2-Chlorophenyl)methyl]-5-[3-(cyclopentylmethoxy)phenyl]pyrazol-3-yl]methoxy]-2-methyl-propanoic acid] came in with an IC50 at MCT4 of 1.1 nM. With `CC(C)(OCc1cc(-c2cccc(OCC3CCOCC3)c2)n(Cc2ccccc2Cl)n1)C(=O)O` [Example 45, 2-[[1-[(2-Chlorophenyl)methyl]-5-[3-(tetrahydropyran-4-ylmethoxy)phenyl]pyrazol-3-yl]methoxy]-2-methyl-propanoic acid], the figures for the IC50 against MCT1 and at MCT4 were 12000 nM and 19 nM, respectively. On the same counts, the results for `CC(C)(OCc1cc(-c2cccc(N3CCOCC3)c2)n(Cc2ccccc2Cl)n1)C(=O)O` [Example 46, 2-[[1-[(2-Chlorophenyl)methyl]-5-(3-morpholinophenyl)pyrazol-3-yl]methoxy]-2-methyl-propanoic acid] are 47000 nM and 142 nM. On to `COc1cccc(-c2cc(COC(C)(C)C(=O)O)nn2-c2ccccn2)c1` [Example 56, 2-[[5-(3-methoxyphenyl)-1-(pyridin-2-yl)-1H-pyrazol-3-yl]methoxy]-2-methylpropanoic acid], for which the IC50 at MCT1 was > 133000 nM. Take `COc1cccc(-c2cc(COC(C)(C)C(=O)O)nn2-c2cccc(Cl)c2)c1` [Example 58, 2-[[1-(3-chlorophenyl)-5-(3-methoxyphenyl)-1H-pyrazol-3-yl]methoxy]-2-methylpropanoic acid]: the IC50 against MCT1 came to 78000 nM. Turning to `COc1cccc(-c2cc(COC(C)(C)C(=O)O)nn2-c2ccc(Cl)cc2)c1` [Example 59, 2-[[1-(4-chlorophenyl)-5-(3-methoxyphenyl)-1H-pyrazol-3-yl]methoxy]-2-methylpropanoic acid], on MCT1, the midpoint of inhibition, the IC50, lay at 81000 nM. Same read-out and setting: with `CC(C)(OCc1cc(Cc2ccccc2)n(Cc2ccccc2Cl)n1)C(=O)O` [Example 77, 2-([5-Benzyl-1-[(2-chlorophenyl)methyl]-1H-pyrazol-3-yl]methoxy)-2-methylpropanoic Acid] the figure was 9000 nM. As for `CC(C)(OCc1cc(-c2cccc(OCC3COC3)c2)n(Cc2ccccc2Cl)n1)C(=O)O` [Example 80, 2-[[1-[(2-Chlorophenyl)methyl]-5-[3-(oxetan-3-ylmethoxy)phenyl]pyrazol-3-yl]methoxy]-2-methyl-propanoic Acid], the IC50 at MCT4 worked out at 81 nM.
